Legend:
[1] = Metabolic stability in swine liver tissue homogenate; format: in vitro ADME; settings: prodrug 20 μM, 37° C.
Description: (§1) The representative Compounds of the Disclosure were screened for metabolic stability in swine jejunum/liver tissue homogenates, following our previously reported methods (Zimmermann et al., J. Med. Chem., 61(9):3918-29 (2018); Tenora et al., J. Med. Chem., 62(7):3524-38 (2019)). In brief, freshly collected tissues were homogenized by probe sonication in 9× volume of 0.1 M potassium phosphate buffer over ice. Post homogenization, prodrugs were spiked at a concentration of 20 μM (in triplicate) and incubated in an orbital shaker at 37° C. for 60 min. Final concentration of DMSO in the incubations was 0.2% v/v. At each time point (0, 30, 60 min), 100 μL of sample was precipitated with 300 μL of methanol containing internal standard (IS; losartan: 0.5 μM). […] After centrifugation, 50 μL of supernatant was diluted with 50 μL of water, vortexed and submitted for analysis. Prodrug disappearance over time was measured using liquid chromatography tandem mass spectrometry (LC-MS/MS).
(§2) The processed supernatants were analyzed on a Thermo Scientific Vanquish UPLC system (equipped with Vanquish autosampler, pumps, and column compartment) hyphenated to TSQ Altis mass spectrometer (Thermo Fisher Scientific Inc., Waltham MA). […] The autosampler was operated at 4° C. […] Peak area ratios obtained from peak area counts of analyte and internal standard were used to measure the disappearance of prodrugs.

[2] = Metabolic stability in swine jejunum (gut) tissue homogenate; format: in vitro ADME; settings: prodrug 20 μM, 37° C.
Description: as §1, §2

| Liver stability (% remaining at 60 min) [1] [%] | Efflux (Efflux) | Gut Stability (% remaining at 60 min) [2] [%] | SMILES |
| --- | --- | --- | --- |
| 0 ± 0 | – | – | CC(C)OC(=O)[C@H](CCC(=O)C=[N+]=[N-])NC(=O)C(Cl)Cl [Compound 5e, Isopropyl (S)-6-diazo-2-(2,2-dichloroacetamido)-5-oxohexanoate] |
| 83 ± 2 | 1 | – | CCOC(=O)[C@H](CCC(=O)C=[N+]=[N-])NC(C)=O [Compound 5k, Ethyl (S)-2-acetamido-6-diazo-5-oxohexanoate] |
| 12 ± 0 | – | – | C=CCOC(=O)[C@H](CCC(=O)C=[N+]=[N-])NC(C)=O [Compound 5l, Allyl (S)-2-acetamido-6-diazo-5-oxohexanoate] |
| 5 ± 1 | – | 12 ± 1 | CCCC(=O)N[C@@H](Cc1c[nH]c2ccccc12)C(=O)N[C@@H](CCC(=O)C=[N+]=[N-])C(=O)OC(C)C [Compound 8a, Isopropyl (S)-2-((S)-2-butyramido-3-(1H-indol-3-yl)propanamido)-6-diazo-5-oxohexanoate] |
| 1 ± 0 | – | 6 ± 1 | CC(C)CC(=O)N[C@@H](Cc1c[nH]c2ccccc12)C(=O)N[C@@H](CCC(=O)C=[N+]=[N-])C(=O)OC(C)C [Compound 8b, Isopropyl (S)-2-((S)-3-(1H-indol-3-yl)-2-(3-methylbutanamido)propanamido)-6-diazo-5-oxohexanoate] |
| 13 ± 0 | – | 13 ± 7 | CC(C)OC(=O)[C@H](CCC(=O)C=[N+]=[N-])NC(=O)[C@H](Cc1c[nH]c2ccccc12)NC(=O)C(C)C [Compound 8c, Isopropyl (S)-2-((S)-3-(1H-indol-3-yl)-2-isobutyramidopropanamido)-6-diazo-5-oxohexanoate] |
| 2 ± 0 | – | 9 ± 1 | CC(C)OC(=O)[C@H](CCC(=O)C=[N+]=[N-])NC(=O)[C@H](Cc1c[nH]c2ccccc12)NC(=O)C(C)(C)C [Compound 8d, Isopropyl (S)-2-((S)-3-(1H-indol-3-yl)-2-pivalamidopropanamido)-6-diazo-5-oxohexanoate] |
| 7 ± 0 | – | 9 ± 0 | CC(C)OC(=O)[C@H](CCC(=O)C=[N+]=[N-])NC(=O)[C@H](Cc1c[nH]c2ccccc12)NC(=O)C1CC1 [Compound 8e, Isopropyl (S)-2-((S)-2-(cyclopropanecarboxamido)-3-(1H-indol-3-yl)propanamido)-6-diazo-5-oxohexanoate] |
| 2 ± 0 | – | 2 ± 0 | CC(C)OC(=O)[C@H](CCC(=O)C=[N+]=[N-])NC(=O)[C@H](Cc1c[nH]c2ccccc12)NC(=O)CN(C)C [Compound 8f, Isopropyl (S)-6-diazo-2-((S)-2-(2-(dimethylamino)acetamido)-3-(1H-indol-3-yl)propanamido)-5-oxohexanoate] |
| 1 ± 0 | – | 1 ± 0 | CCN(CC)CC(=O)N[C@@H](Cc1c[nH]c2ccccc12)C(=O)N[C@@H](CCC(=O)C=[N+]=[N-])C(=O)OC(C)C [Compound 8g, Isopropyl (S)-6-diazo-2-((S)-2-(2-(diethylamino)acetamido)-3-(1H-indol-3-yl)propanamido)-5-oxohexanoate] |
| 0 ± 0 | – | 0 ± 0 | CC(C)OC(=O)[C@H](CCC(=O)C=[N+]=[N-])NC(=O)[C@H](Cc1c[nH]c2ccccc12)NC(=O)CN1CCOCC1 [Compound 8i, Isopropyl (S)-2-((S)-3-(1H-indol-3-yl)-2-(2-morpholinoacetamido)propanamido)-6-diazo-5-oxohexanoate] |
| 2 ± 0 | – | – | CC(C)OC(=O)[C@H](CCC(=O)C=[N+]=[N-])NC(=O)[C@H](Cc1c[nH]c2ccccc12)NC(=O)CN1CCN(C)CC1 [Compound 8j, Isopropyl (S)-2-((S)-3-(1H-indol-3-yl)-2-(2-(4-methylpiperazin-1-yl)acetamido)propanamido)-6-diazo-5-oxohexanoate] |
| 0 ± 0 | – | 2 ± 0 | CC(C)OC(=O)[C@H](CCC(=O)C=[N+]=[N-])NC(=O)[C@H](Cc1c[nH]c2ccccc12)NC(=O)c1cccnc1 [Compound 8l, Isopropyl (S)-2-((S)-3-(1H-indol-3-yl)-2-(nicotinamido)propanamido)-6-diazo-5-oxohexanoate] |
| 0 ± 0 | – | – | CC(C)OC(=O)[C@H](CCC(=O)C=[N+]=[N-])NC(=O)[C@H](Cc1c[nH]c2ccccc12)NC(=O)c1ccncc1 [Compound 8m, Isopropyl (S)-2-((S)-3-(1H-indol-3-yl)-2-(isonicotinamido)propanamido)-6-diazo-5-oxohexanoate] |
| 50 ± 3 | – | – | Cn1cc(C[C@H](NC(=O)C(Cl)Cl)C(=O)N[C@@H](CCC(=O)C=[N+]=[N-])C(=O)OC(C)(C)C)c2ccccc21 [Compound 12h, tert-Butyl (S)-6-diazo-2-((S)-2-(2,2-dichloroacetamido)-3-(1-methyl-1H-indol-3-yl)propanamido)-5-oxohexanoate] |
| 88 ± 1 | – | 96 ± 0 | CC(=O)NCC(=O)N[C@@H](CCC(=O)C=[N+]=[N-])C(=O)OC(C)(C)C [Compound 14a, tert-Butyl (S)-2-(2-acetamidoacetamido)-6-diazo-5-oxohexanoate] |
| 103 ± 3 | – | 96 ± 1 | CC(=O)N[C@@H](Cc1cccnc1)C(=O)N[C@@H](CCC(=O)C=[N+]=[N-])C(=O)OC(C)(C)C [Compound 17a, tert-Butyl (S)-2-((S)-2-acetamido-3-(pyridin-3-yl)propanamido)-6-diazo-5-oxohexanoate] |
| 105 ± 2 | – | 93 ± 1 | CC(=O)N[C@@H](Cc1cncn1C)C(=O)N[C@@H](CCC(=O)C=[N+]=[N-])C(=O)OC(C)(C)C [Compound 18a, tert-Butyl (S)-2-((S)-2-acetamido-3-(1-methyl-1H-imidazol-5-yl)propanamido)-6-diazo-5-oxohexanoate] |
| 100 ± 3 | – | 98 ± 2 | CN(C)CC(=O)N[C@@H](Cc1cncn1C)C(=O)N[C@@H](CCC(=O)C=[N+]=[N-])C(=O)OC(C)(C)C [Compound 18b, tert-Butyl (S)-6-diazo-2-((S)-2-(2-(dimethylamino)acetamido)-3-(1-methyl-1H-imidazol-5-yl)propanamido)-5-oxohexanoate] |
| 75 ± 4 | 46.71 | – | CN(C)CC(=O)N[C@@H](Cc1cccc(F)c1)C(=O)N[C@@H](CCC(=O)C=[N+]=[N-])C(=O)OC(C)(C)C [Compound 21a, tert-Butyl (S)-6-diazo-2-((S)-2-(2-(dimethylamino)acetamido)-3-(3-fluorophenyl)propanamido)-5-oxohexanoate] |
| 62 ± 1 | 52.07 | – | CN(C)CC(=O)N[C@@H](Cc1ccc(F)cc1)C(=O)N[C@@H](CCC(=O)C=[N+]=[N-])C(=O)OC(C)(C)C [Compound 22a, tert-Butyl (S)-6-diazo-2-((S)-2-(2-(dimethylamino)acetamido)-3-(4-fluorophenyl)propanamido)-5-oxohexanoate] |
| 78 ± 1 | – | – | CN(C)CC(=O)N[C@@H](CC(C)(C)C)C(=O)N[C@@H](CCC(=O)C=[N+]=[N-])C(=O)OC(C)(C)C [Compound 24a, tert-Butyl (S)-6-diazo-2-((S)-2-(2-(dimethylamino)acetamido)-4,4-dimethylpentanamido)-5-oxohexanoate] |
| 71 ± 0 | – | – | CN(C)[C@@H](Cc1ccccc1)C(=O)N[C@@H](CCC(=O)C=[N+]=[N-])C(=O)OC(C)(C)C [Compound 26a, tert-Butyl (S)-6-diazo-2-((S)-2-(dimethylamino)-3-phenylpropanamido)-5-oxohexanoate] |
| 89 ± 4 | – | – | CN(C)CC(=O)NCC(=O)N[C@@H](CCC(=O)C=[N+]=[N-])C(N)=O [Compound 31c, (S)-6-Diazo-2-(2-(2-(dimethylamino)acetamido)acetamido)-5-oxohexanamide] |
| 90 ± 1 | – | – | CC(C)C[C@H](NC(=O)CN(C)C)C(=O)N[C@@H](CCC(=O)C=[N+]=[N-])C(N)=O [Compound 31d, (S)-6-Diazo-2-((S)-2-(2-(dimethylamino)acetamido)-4-methylpentanamido)-5-oxohexanamide] |
| 39 ± 0 | – | – | CN(C)CC(=O)N[C@@H](Cc1ccccc1)C(=O)N[C@@H](CCC(=O)C=[N+]=[N-])C(N)=O [Compound 31e, (S)-6-Diazo-2-((S)-2-(2-(dimethylamino)acetamido)-3-phenylpropanamido)-5-oxohexanamide] |
| 49 ± 0 | – | 89 ± 2 | CN(C)CC(=O)N[C@@H](Cc1cn(C)c2ccccc12)C(=O)N[C@@H](CCC(=O)C=[N+]=[N-])C(N)=O [Compound 31f, (S)-6-Diazo-2-((S)-2-(2-(dimethylamino)acetamido)-3-(1-methyl-1H-indol-3-yl)propanamido)-5-oxohexanamide] |

Reference: US20240246902A1, “PRODRUGS OF 6-DIAZO-5-OXO-L-NORLEUCINE” (THE JOHNS HOPKINS UNIVERSITY, priority 2021, published 2024)
